Experimental data: US7521540B2, “CYR61 compositions and methods” (Munin Corporation, priority 1996, dated 2009)

How the values were obtained:
[1] = system: 1064SK primary human foreskin fibroblasts; experiment: Fibroblast adhesion assay (methylene blue, A620); type: cell-based; details: for 1064SK adhesion to Cyr61-coated wells with agent: Cyr61 2 μg/ml, agent at the level stated in the block, Mg2+ 5.0 mM after EDTA; for 1064SK adhesion to Type I collagen-coated wells with agent: Type I collagen 2 μg/ml; for 1064SK adhesion to vitronectin-coated wells with agent: vitronectin 0.5 μg/ml; for concentration that inhibited cell adhesion to Cyr61: in cell suspension
Experimental: The ability of Cyr61 to mediate cell adhesion in normal fibroblasts was investigated. Microtiter wells were coated with purified recombinant Cyr61 protein, and 1064SK primary human foreskin fibroblasts were allowed to adhere under serum-free conditions. […] 50 μl cell suspensions were plated on microtiter wells coated with varying concentrations (0.5-5.0 μg/ml) of Cyr61 protein. After incubation at 37° C. for 30 minutes, adherent cells were fixed and stained with methylene blue.
In another experiment, microtiter wells were coated with either BSA, Cyr61 (2 μg/ml), or vitronectin (VN; 0.5 μg/ml) and blocked with affinity-purified anti-Cyr61 antibodies for one hour at 37° C. before 1064SK cells were plated.
The effects of divalent cations in cell adhesion to Cyr61 was also investigated. […] Data are means from triplicate determinations. […] Inhibition by Ca^2+ is characteristic of adhesion through some members of the β1 family of integrins, including receptors that bind type I collagen, laminin, and vitronectin (integrins α2β1, α6β1, and αVβ1) in fibroblasts, as well as the lymphocyte-specific integrin αLβ2.
The effects of RGD peptides on Cyr61-mediated fibroblast binding was tested by plating cells in wells coated with Cyr61 (2 μg/ml). Type I collagen (2 μg/ml) or vitronectin (0.5 μg/ml), 2 mM GRGDSP or GRGESP peptide was then added.
Cells were also pre-incubated with 40 μg/ml monoclonal antibodies against the integrin α5 or the integrin αV subunits at room temperature for 30 minutes, then plated on wells coated with Cyr61 (2 μg/ml), vitronectin (0.5 μg/ml) or fibronectin (FN, 1 μg/ml). […] The data are means, representative of three experiments.
The 1064 SK cells were also analyzed using the monoclonal antibody JBIA, which binds the β1 integrin subunit. Cells were pre-incubated with the antibody (50 μg/ml) before plating on microtiter wells coated with Cyr61 (2 μg/ml), Type I collagen (2 μg/ml), or vitronectin (0.5 μg/ml). […] Data are means, representative of three experiments.
To identify the specific β1 integrin that mediates fibroblast adhesion to Cyr61, the inhibitory effects of function-blocking monoclonal antibodies were tested against various integrin α subunits. […] The data are means, representative of at least three experiments.

[2] = system: platelets; experiment: Platelet adhesion assay; type: cell-based, human
Experimental: Microtiter wells were coated with purified recombinant Fisp12/mCTGF or Cyr61, and the adhesion of isolated platelets to these proteins was detected with ^125I-mAb15, an anti-β3 monoclonal antibody (Frelinger et al., J. Biol. Chem 265:6346-6352 [1990]). Platelets were obtained from venous blood drawn from healthy donors and collected into acid-citrate-dextrose (ACD). Washed platelets were prepared by diffenential centrifugation as described (Kinlough-Rathbone et al. Thromb. Haemostas 2:291-308 [1997]), and finally resuspended in HEPES-Tyrode's buffer (5 mM HEPES, pH 7.35, 1 mM MgCl2, 1 mM CaCl2, 135 mM NaCl, 2.7 mM KCl, 11.9 mM NaHCO3, 1 mg/ml dextrose and 3.5 mg/ml BSA). The platelet concentration was adjusted to […].
Microtiter wells (Immulon 2 removawell strips, Dynex Technologies, Inc.) were coated with Cyr61, Fisp12/mCTGF, or fibrinogen (25 μg/ml, 50 μl/well) incubated overnight at 22° C., and then blocked with 3% BSA at 37° C. for 2 hours. Washed platelets were added to the wells (100 μl/well) in the presence and absence of platelet agonists and incubated at 37° C. for 30 minutes. The wells were washed with HEPES-Tyrode's buffer and adherent platelets were detected with ^125I-mAb15, an anti-β3 monoclonal antibody. Exposure to the labeled antibody ([…], 50 μl/well) proceeded for 1 hour at 22° C. After extensive washing with HEPES-Tyrode's buffer, bound radioactivity was determined by γ-counting. In inhibition studies, washed platelets were pre-incubated with blocking peptides or antibodies at 37° C. for 15 minutes prior to addition to microtiter wells.
The anti-β3 antibody was radioiodinated with carrier-free Na^125I (Amersham Corp.) using the IODO-BEADS iodination reagent (Pierce) to a specific activity of approximately 2 μCi/μg. […] As controls, BSA- and fibrinogen-coated (KabiVitrum Inc.) wells were also used. Initially, the adhesion of unactivated versus activated platelets to immobilized Fisp12/mCTGF and Cyr61 was compared. To ensure that plateltes were not activated during the washing procedures, PGl2 (100 nM), which inhibits activation by raising platelet cAMP levels, was added to the platelet suspensions. […]

[3] = system: HUVE cells; experiment: HUVE cell attachment to murine Cyr61-coated plates; type: cell-based, human; details: Cyr61-coated surfaces
Experimental: Another embodiment of the invention is directed to the use of Cyr61 to mediate cellular attachment to the extracellular matrix. Induction of cellular adhesion was investigated using murine Cyr61, fibronectin, and bovine serum albumin (BSA). Immunological 96-well plates (Falcon brand) were coated with 50 μl of 0.1% BSA in PBS at 4° C. in the presence of 0-30 μg/ml concentrations of murine Cyr61 or fibronectin. After two hours exposure to the coating solution, non-diluted immune or pre-immune antisera (30 μl/well), or affinity-purified anti-Cyr61 antibodies were added. For some wells, the coating mixture was adjusted to 10 mM DTT or 100 mM HCl. After 16 hours incubation, the coating solution was removed and the well surface was blocked with 1% BSA in phosphate-buffered saline (PBS) for 1 hour at room temperature. HUVE cells were plated in Ham's complete F12K medium [GIBCO-BRL, Inc.; Ham, Proc. Natl. Acacd. Sci. (USA) 53:786 (1965)] at 5×10^3-10^4 cells/well. Cycloheximide was added to 100 μg/ml immediately before plating and monensin was added to 1 μM 14 hours before plating. After a 2-hour incubation at 37° C., the wells were washed with PBS and attached cells were fixed and stained with methylene blue. The attachment efficiency was determined by quantitative dye extraction and measurement of the extract absorbance at 650 nm. Oliver et al., J. Cell. Sci. 92:513-518 (1989).

[4] = system: Human Microvascular Endothelial Cells; experiment: In vitro migration assay for angiogenesis inhibitors; type: cell-based; details: for migrating cells per set of three high-powered fields, Cyr61 plus compound: Cyr61 1 μg/ml plus 10 mM compound
Experimental: As in the preceding Example, human microvascular endothelial cells (Clonetics) were used. In one series of assays, several carbohydrates and carbohydrate derivatives were analyzed. These compounds included 10 mM mannose, 10 mM mannose-6-phosphate, and 10 mM galactose. […] Cyr61 plus galactose induced the migration of approximately 74 cells per set of three high-powered fields. […] The angiogenic activity of basic FGF (10 ng/ml) was also tested, as described above, with and without mannose-6-phosphate. In the presence of 10 mM mannose-6-phosphate, bFGF induced 51 cells per set of three high-powered fields to migrate; in its absence, bFGF induced the migration of approximately 52 cells. […] The effect of mannose-6-phosphate on IGF II activity was anticipated because mannose-6-phosphate is known to compete with IGF II for their common receptor (the IGF II receptor). […] Moreover, because there is an essentially perfect correlation between the in vitro migration assay and the in vivo angiogenesis assay, described below, mannose-6-phosphate has been identified as an inhibitor of angiogenesis based on the results of the assay disclosed herein. Accordingly, the invention contemplates a method of inhibiting angiogenesis comprising the step of administering an inhibitor the angiogenic activity of Cyr61 such as mannose-6-phosphate. Assays such as that described above may also be used to screen for other inhibitors of angiogenesis which may be useful in the treatment of diseases associated with angiogenesis such as cancer, and diseases of the eye which are accompanied by neovascularization.

With GRGDSP the “1064SK adhesion to Cyr61-coated wells with agent” value [1] was ~0.48 A620, the “1064SK adhesion to Type I collagen-coated wells with agent” value [1] was 0.47 A620 and the “1064SK adhesion to vitronectin-coated wells with agent” value [1] was 0.05 A620. The “effect of agent on activated platelet adhesion to Cyr61 and Fisp12/mCTGF” value [2] was “specifically inhibited”.

In the case of CC[C@@]1([C@@H]2O[C@@H]([C@H]3O[C@@](O)(CO)[C@H](C)C[C@@H]3C)C[C@@H]2C)CC[C@H]([C@]2(C)CC[C@]3(C[C@H](O)[C@@H](C)[C@@H]([C@@H](C)[C@@H](OC)[C@H](C)C(=O)O)O3)O2)O1 [monensin], the “effect of agent on HUVE cell adhesion to Cyr61” value [3] is reported as “insensitive”.

For CCCCC[C@H](O)/C=C/[C@@H]1[C@H]2C/C(=C/CCCC(=O)O)O[C@H]2C[C@H]1O [PGl2], the “effect of agent on activated platelet adhesion to Cyr61 and Fisp12/mCTGF” value [2] was “significantly inhibited”.

In the case of “Chondroitin sulfate B (Dermatan sulfate) [chondroitin B]”, the “concentration that inhibited cell adhesion to Cyr61” value [1] is reported as 10 µg/mL.

For RGES [reference compound], the “effect of agent on adhesion of ADP-activated platelets to fibrinogen” value [2] was “not by RGES or LM609”.

For Chondroitin sulfate C [chondroitin C], the “inhibition of adhesion to Cyr61” value ([1]; 0.01-1000 μg/ml) was “failed to inhibit adhesion to Cyr61 at all concentrations tested”.

For chondroitinase A, B, C, the “1064SK adhesion to Cyr61-coated wells with agent” value [1] was 0.57 A620, the “1064SK adhesion to fibronectin-coated wells with agent” value ([1]; fibronectin 1 μg/ml) was 0.65 A620 and the “1064SK adhesion to vitronectin-coated wells with agent” value [1] was 0.69 A620.

O=C(O)CN(CCOCCOCCN(CC(=O)O)CC(=O)O)CC(=O)O [EGTA] was tested, and the “effect of agent on HUVE cell adhesion to Cyr61” value [3] was “completely abolished”.

heparan sulfate was tested, and the “concentration that inhibited cell adhesion to Cyr61” value [1] was 0.1 µg/mL.

laminin was tested, and the “1064SK adhesion to coated protein, nothing added” value ([1]; Cyr61 2, VN 0.5, Type I collagen 2, fibronectin 1, laminin 5 μg/ml) was 0.62 A620.

In the case of [Mn+2] [Mn^2+], the “effect of agent on fibroblast adhesion to Cyr61” value [1] is reported as “had no effect”.

For Chondroitin sulfate A [chondroitin A], the “concentration that inhibited cell adhesion to Cyr61” value [1] was 1000 µg/mL.

With GRGESP the “1064SK adhesion to Cyr61-coated wells with agent” value [1] was ~0.46 A620, the “1064SK adhesion to Type I collagen-coated wells with agent” value [1] was 0.49 A620 and the “1064SK adhesion to vitronectin-coated wells with agent” value [1] was 0.41 A620.

In the case of C[C@@H]1C[C@@H]([C@H](O)CC2CC(=O)NC(=O)C2)C(=O)[C@@H](C)C1 [cycloheximide], the “effect of agent on HUVE cell adhesion to Cyr61” value [3] is reported as “insensitive”.

For O=S(=O)([O-])[O-].[Mg+2] [MgSO4, magnesium sulfate], the “effect of agent on fibroblast adhesion to Cyr61” value [1] was “resuced”.

In the case of [Mg+2] [Mg^2+], the “effect of agent on fibroblast adhesion to Cyr61” value [1] is reported as “had no effect”, the “1064SK adhesion to Cyr61-coated wells with agent” value [1] is reported as 0.50 A620 and the “1064SK adhesion to Type I collagen-coated wells with agent” value [1] is reported as 0.58 A620. For the same molecule, the “1064SK adhesion to vitronectin-coated wells with agent” value [1] was 0.55 A620.

In the case of O=C[C@@H](O)[C@@H](O)[C@H](O)[C@H](O)COP(=O)(O)O [mannose-6-phosphate], the “migrating cells induced by Cyr61 in presence of compound” value [4] is reported as “approximately 12 cells”, the “migrating cells induced by IGF-II in presence of compound” value [4] is reported as ~11 cells and the “migrating cells per set of three high-powered fields, Cyr61 plus compound” value [4] is reported as “approximately 2 cells”. For the same molecule, the “migrating cells induced by bFGF in presence of compound” value ([4]; bFGF 10 ng/ml, 10 mM compound) was 51 cells.

With [Ca+2] [Ca^2+] the “effect of agent on fibroblast adhesion to Cyr61” value [1] was “abolished cell adhesion to Cyr61 competely”.

[Na+].[O-][Cl+2]([O-])[O-] [sodium chlorate] was tested, and the “inhibition of cell adhesion to other substrates” value ([1]; 40 mM, fibronectin, type I collagen, vitronectin, laminin) was 10-20% and the “inhibition of cell adhesion to Cyr61” value ([1]; sodium chlorate 40 mM) was 90%.

In the case of O=C[C@H](O)[C@@H](O)[C@@H](O)[C@H](O)CO [galactose], the “migrating cells per set of three high-powered fields, Cyr61 plus compound” value [4] is reported as “approximately 74 cells”.

For IGF-II: Insulin Growth Factor II, the “migrating cells, chemoattractant without mannose-6-phosphate” value ([4]; bFGF 10 ng/ml, Cyr61, IGF-II) was ~47 cells.
